Data reported in patent US9334264B2, “NAMPT inhibitors” (AbbVie Inc., priority 2012, dated 2016).

How the values were obtained:
[1] = molecular target: NAMPT (human, recombinant, C-terminally His-tagged) (Homo sapiens, UniProt P43490); assay: Time-Resolved Fluorescence Resonance Energy Transfer (TR-FRET) Binding Assay of NAMPT; conditions: absence of substrates; 6.8 nM NAMPT, 200 nM probe, equilibrated 3 hours
In short: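 Displacement of 200 nM Oregon Green-labelled nicotinamide-competitive probe from 6.8 nM His-tagged NAMPT, detected with 1 nM Tb-anti-His; HEPES pH 7.5, 2% DMSO, 3 h room temperature. Em520/Em495 ratios normalized and fit four-parameter logistic for IC50.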

[2] = molecular target: NAMPT (Homo sapiens, UniProt P43490); assay: Time-Resolved Fluorescence Resonance Energy Transfer (TR-FRET) Binding Assay of NAMPT with PRPP; conditions: 200 μM PRPP and 2.5 mM ATP; 2 nM NAMPT, 2 nM probe, equilibrated 16 hours
In short: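 Binding was measured by TR-FRET with 2 nM NAMPT, 2 nM probe and 1 nM Tb-anti-His antibody in the presence of 200 μM PRPP and 2.5 mM ATP, with 2% DMSO. Equilibration lasted 16 h before reading, allowing possible enzymatic modification of compounds.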

Chain of NAMPT (P43490 whole entry): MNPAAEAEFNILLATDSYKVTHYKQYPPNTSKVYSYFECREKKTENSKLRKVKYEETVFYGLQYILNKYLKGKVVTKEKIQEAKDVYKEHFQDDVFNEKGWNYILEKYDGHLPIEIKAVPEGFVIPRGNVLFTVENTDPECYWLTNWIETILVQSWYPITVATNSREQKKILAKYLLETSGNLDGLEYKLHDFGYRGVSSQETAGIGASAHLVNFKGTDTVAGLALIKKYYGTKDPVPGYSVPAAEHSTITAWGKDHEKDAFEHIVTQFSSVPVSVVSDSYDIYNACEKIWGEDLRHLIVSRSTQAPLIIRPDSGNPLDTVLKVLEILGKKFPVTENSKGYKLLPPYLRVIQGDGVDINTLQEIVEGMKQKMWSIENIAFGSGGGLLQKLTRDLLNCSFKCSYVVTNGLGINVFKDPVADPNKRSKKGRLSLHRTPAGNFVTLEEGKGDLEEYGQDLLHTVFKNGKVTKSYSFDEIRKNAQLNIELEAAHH
Chain of NAMPT (human, recombinant, C-terminally His-tagged) (P43490 whole entry): as above

Row | SMILES | IC50 [1] [nM] | IC50 [2] [nM]
1 | CCC(CNC(=O)N(Cc1ccc(F)cc1)c1ncc(C(=O)NCCCn2ccnc2)s1)OC (stereo not shown) [Example 90, 2-{(4-fluorobenzyl)[(2-methoxybutyl)carbamoyl]amino}-N-[3-(1H-imidazol-1-yl)propyl]-1,3-thiazole-5-carboxamide] | > 10000 | 2.25
2 | O=C(NCCCn1ccnc1)c1cnc(N(Cc2ccc(F)cc2)C(=O)NC2CCCOC2)s1 (stereo not shown) [Example 92, 2-[(4-fluorobenzyl)(tetrahydro-2H-pyran-3-ylcarbamoyl)amino]-N-[3-(1H-imidazol-1-yl)propyl]-1,3-thiazole-5-carboxamide] | > 10000 | 0.868
3 | COCCC(=O)N(Cc1ncccn1)c1ncc(C(=O)NCCCn2ccnc2)s1 [Example 93, N-[3-(1H-imidazol-1-yl)propyl]-2-[(3-methoxypropanoyl)(pyrimidin-2-ylmethyl)amino]-1,3-thiazole-5-carboxamide] | > 10000 | 16.6
4 | COCCC(=O)N(Cc1ccc(Cl)cn1)c1ncc(C(=O)NCCCn2ccnc2)s1 [Example 96, 2-{[(5-chloropyridin-2-yl)methyl](3-methoxypropanoyl)amino}-N-[3-(1H-imidazol-1-yl)propyl]-1,3-thiazole-5-carboxamide] | 4190 | 3.35
5 | COCCC(=O)N(Cc1cnccc1C)c1ncc(C(=O)NCCCn2ccnc2)s1 [Example 97, N-[3-(1H-imidazol-1-yl)propyl]-2-{(3-methoxypropanoyl)[(4-methylpyridin-3-yl)methyl]amino}-1,3-thiazole-5-carboxamide] | > 10000 | 5.89
6 | COCCC(=O)N(Cc1ccc(OC)nc1)c1ncc(C(=O)NCCCn2ccnc2)s1 [Example 98, N-[3-(1H-imidazol-1-yl)propyl]-2-{(3-methoxypropanoyl)[(6-methoxypyridin-3-yl)methyl]amino}-1,3-thiazole-5-carboxamide] | 1500 | 1.47
7 | COCCC(=O)N(Cc1scnc1C)c1ncc(C(=O)NCCCn2ccnc2)s1 [Example 99, N-[3-(1H-imidazol-1-yl)propyl]-2-{(3-methoxypropanoyl)[(4-methyl-1,3-thiazol-5-yl)methyl]amino}-1,3-thiazole-5-carboxamide] | 3560 | 1.5
8 | COCCC(=O)N(CCc1ccccn1)c1ncc(C(=O)NCCCn2ccnc2)s1 [Example 101, N-[3-(1H-imidazol-1-yl)propyl]-2-{(3-methoxypropanoyl)[2-(pyridin-2-yl)ethyl]amino}-1,3-thiazole-5-carboxamide acetate (1:1)] | 5620 | 2.84
9 | COCCC(=O)N(CCc1ccc(Cl)cc1)c1ncc(C(=O)NCCCn2ccnc2)s1 [Example 103, 2-{[2-(4-chlorophenyl)ethyl](3-methoxypropanoyl)amino}-N-[3-(1H-imidazol-1-yl)propyl]-1,3-thiazole-5-carboxamide acetate (1:1)] | 709 | 3.06
10 | COCCC(=O)N(CCc1cccc(F)c1)c1ncc(C(=O)NCCCn2ccnc2)s1 [Example 104, 2-{[2-(3-fluorophenyl)ethyl](3-methoxypropanoyl)amino}-N-[3-(1H-imidazol-1-yl)propyl]-1,3-thiazole-5-carboxamide acetate (1:1)] | 445 | 1.31
11 | COCCC(=O)N(CCc1cccc(Cl)c1)c1ncc(C(=O)NCCCn2ccnc2)s1 [Example 106, 2-{[2-(3-chlorophenyl)ethyl](3-methoxypropanoyl)amino}-N-[3-(1H-imidazol-1-yl)propyl]-1,3-thiazole-5-carboxamide acetate (1:1)] | 1930 | 1.8
12 | COCCC(=O)N(CCc1cccc(OC)c1)c1ncc(C(=O)NCCCn2ccnc2)s1 [Example 107, N-[3-(1H-imidazol-1-yl)propyl]-2-{[2-(3-methoxyphenyl)ethyl](3-methoxypropanoyl)amino}-1,3-thiazole-5-carboxamide acetate (1:1)] | 814 | 2.24
13 | COCCC(=O)N(CC(O)c1ccc(OC)cc1)c1ncc(C(=O)NCCCn2ccnc2)s1 (stereo not shown) [Example 109, 2-{[2-hydroxy-2-(4-methoxyphenyl)ethyl](3-methoxypropanoyl)amino}-N-[3-(1H-imidazol-1-yl)propyl]-1,3-thiazole-5-carboxamide acetate (1:1)] | > 10000 | 3.74
14 | COCCC(=O)N(c1ncc(C(=O)NCCCn2ccnc2)s1)C(C)c1ccccn1 (stereo not shown) [Example 110, N-[3-(1H-imidazol-1-yl)propyl]-2-{(3-methoxypropanoyl)[1-(pyridin-2-yl)ethyl]amino}-1,3-thiazole-5-carboxamide] | > 10000 | 23.2
15 | COCCC(=O)N(Cc1c(F)cccc1F)c1ncc(C(=O)NCCCn2ccnc2)s1 [Example 112, 2-[(2,6-difluorobenzyl)(3-methoxypropanoyl)amino]-N-[3-(1H-imidazol-1-yl)propyl]-1,3-thiazole-5-carboxamide] | 3680 | 2.08
16 | COCCC(=O)N(Cc1ccc(Cl)cc1)c1ncc(C(=O)NCCCn2ccnc2)s1 [Example 114, 2-[(4-chlorobenzyl)(3-methoxypropanoyl)amino]-N-[3-(1H-imidazol-1-yl)propyl]-1,3-thiazole-5-carboxamide] | 1990 | 2.31
17 | COCCC(=O)N(Cc1ccccc1C)c1ncc(C(=O)NCCCn2ccnc2)s1 [Example 119, N-[3-(1H-imidazol-1-yl)propyl]-2-[(3-methoxypropanoyl)(2-methylbenzyl)amino]-1,3-thiazole-5-carboxamide] | 4570 | 1.89
18 | COCCC(=O)N(Cc1cccc(C)c1)c1ncc(C(=O)NCCCn2ccnc2)s1 [Example 120, N-[3-(1H-imidazol-1-yl)propyl]-2-[(3-methoxypropanoyl)(3-methylbenzyl)amino]-1,3-thiazole-5-carboxamide] | 3780 | 2.29
19 | COCCC(=O)N(Cc1ccccn1)c1ncc(C(=O)NCCCn2ccnc2)s1 [Example 121, N-[3-(1H-imidazol-1-yl)propyl]-2-[(3-methoxypropanoyl)(pyridin-2-ylmethyl)amino]-1,3-thiazole-5-carboxamide] | > 10000 | 9.25
20 | COCCC(=O)N(Cc1cccnc1)c1ncc(C(=O)NCCCn2ccnc2)s1 [Example 122, N-[3-(1H-imidazol-1-yl)propyl]-2-[(3-methoxypropanoyl)(pyridin-3-ylmethyl)amino]-1,3-thiazole-5-carboxamide] | > 10000 | 4.31

Other lines, results leading:

Row | IC50 [1] [nM] | IC50 [2] [nM] | SMILES
21 | 8690 | 0.543 | O=C(NCCCn1ccnc1)c1cnc(N(Cc2ccc(F)cc2)C(=O)NC2CCOC2)s1 (stereo not shown) [Example 91, 2-[(4-fluorobenzyl)(tetrahydrofuran-3-ylcarbamoyl)amino]-N-[3-(1H-imidazol-1-yl)propyl]-1,3-thiazole-5-carboxamide]
22 | 2870 | 1.22 | COCCC(=O)N(Cc1ccnc(OC)c1)c1ncc(C(=O)NCCCn2ccnc2)s1 [Example 94, N-[3-(1H-imidazol-1-yl)propyl]-2-{(3-methoxypropanoyl)[(2-methoxypyridin-4-yl)methyl]amino}-1,3-thiazole-5-carboxamide]
23 | 3890 | 15.1 | COCCC(=O)N(Cc1cocn1)c1ncc(C(=O)NCCCn2ccnc2)s1 [Example 95, N-[3-(1H-imidazol-1-yl)propyl]-2-[(3-methoxypropanoyl)(1,3-oxazol-4-ylmethyl)amino]-1,3-thiazole-5-carboxamide]
24 | 306 | 2.16 | COCCC(=O)N(CCc1ccc2c(c1)OCO2)c1ncc(C(=O)NCCCn2ccnc2)s1 [Example 102, 2-{[2-(1,3-benzodioxol-5-yl)ethyl](3-methoxypropanoyl)amino}-N-[3-(1H-imidazol-1-yl)propyl]-1,3-thiazole-5-carboxamide acetate (1:1)]
25 | 1450 | 1.61 | COCCC(=O)N(CCc1ccccc1F)c1ncc(C(=O)NCCCn2ccnc2)s1 [Example 108, 2-{[2-(2-fluorophenyl)ethyl](3-methoxypropanoyl)amino}-N-[3-(1H-imidazol-1-yl)propyl]-1,3-thiazole-5-carboxamide acetate (1:1)]
26 | > 10000 | 5.87 | COCCC(=O)N(Cc1cnn(C)c1)c1ncc(C(=O)NCCCn2ccnc2)s1 [Example 111, N-[3-(1H-imidazol-1-yl)propyl]-2-{(3-methoxypropanoyl)[(1-methyl-1H-pyrazol-4-yl)methyl]amino}-1,3-thiazole-5-carboxamide]
27 | 4990 | 6.76 | COCCC(=O)N(Cc1ccc(C)nc1)c1ncc(C(=O)NCCCn2ccnc2)s1 [Example 113, N-[3-(1H-imidazol-1-yl)propyl]-2-{(3-methoxypropanoyl)[(6-methylpyridin-3-yl)methyl]amino}-1,3-thiazole-5-carboxamide]
28 | 1420 | 3.6 | COCCC(=O)N(Cc1cnc(C)cn1)c1ncc(C(=O)NCCCn2ccnc2)s1 [Example 115, N-[3-(1H-imidazol-1-yl)propyl]-2-{(3-methoxypropanoyl)[(5-methylpyrazin-2-yl)methyl]amino}-1,3-thiazole-5-carboxamide]
29 | 1250 | 3.02 | COCCC(=O)N(Cc1ccc(C)cn1)c1ncc(C(=O)NCCCn2ccnc2)s1 [Example 117, N-[3-(1H-imidazol-1-yl)propyl]-2-{(3-methoxypropanoyl)[(5-methylpyridin-2-yl)methyl]amino}-1,3-thiazole-5-carboxamide]
